From patent US20070196811A1, “Use Of Flavanol Derivatives For The Cryopreservation Of Living Cells” (priority 2004, published 2007)

System: spermatozoa
Assay: Post-thaw sperm motility after freezing in supplemented CryoProtec medium, analyzed by CASA
Assay type: cell-based
Details: for Percentage of motile spermatozoa: thawed after 24 h in liquid nitrogen, mean±SD, 5 experiments; for velocity parameters, including linear velocity (VSL) and lateral head displacement (AHL): post-thaw, Cryoprotec medium supplemented with compound
Description: Aliquots of 50 μL of solutions of different 4-thioderivatives of flavan-3-ol of formula (I) hereof dissolved in PureSperm Wash medium (Nidacon International, Sweden), were added to 0.95 mL of the spermatozoa suspension (50 millions/mL) in CryoProtec freezing medium (Nidacon International, Sweden) in 1.8 mL Nunc vials in order to obtain final concentrations of 1, 10, 25, 50 and 100 μg/mL. Aliquots of 50 μL of solutions of (−)-epicatechin, a natural flavan-3-ol, were treated in the same way. As a control, 50 μL of PureSperm Wash medium (Nidacon International) were added instead of the solutions of the compounds of the invention (0 μg/mL). The percentage of motile cells in the different cellular suspensions was analyzed by CASA (Computer-Assisted Sperm Analysis) using an IVOS-IDENT (Hamilton-Thorn, Beverly, Mass.).
The cellular suspensions were processed for freezing using a standard freezing gradient as follows: cooling from room temperature to 4° C. in 30 min, from 4° C. to 0° C. in 3 min and immediately transferred to liquid nitrogen tanks. After 24 h in liquid nitrogen, the samples were thawed in a water bath at 37° C.
The percentage of motile spermatozoa in the different samples obtained above was analyzed by CASA. Since vials corresponding to the different compounds were in different boxes inside the nitrogen tanks, a control was used for each group of compounds.
Values are the mean±SD from a total of 5 experiments per concentration.

[1] = 1 μg/mL (approximate) compound in freezing medium
[2] = 10 μg/mL (approximate) compound in freezing medium
[3] = 25 μg/mL (approximate) compound in freezing medium
[4] = 50 μg/mL (approximate) compound in freezing medium
[5] = 100 μg/mL (approximate) compound in freezing medium

Compound | Percentage of motile spermatozoa [1] [%] | Percentage of motile spermatozoa [2] [%] | Percentage of motile spermatozoa [3] [%] | Percentage of motile spermatozoa [4] [%] | Percentage of motile spermatozoa [5] [%] | velocity parameters, including linear velocity (VSL) and lateral head displacement (AHL) | post-thaw motility recovery versus control ((−)-epicatechin versus control, all concentrations) | protection, evaluated in terms of sperm motility (concentrations ranging from 1 to 100 μg/mL) | storage stabilizing cryoprotective effect (summary statement)
COC(=O)[C@H](CS[C@H]1c2c(O)cc(O)cc2O[C@H](c2ccc(O)c(O)c2)[C@@H]1O)NC(C)=O [Example 4, 4β-[S—(N-acetyl-O-methyl-cysteinyl)]epicatechin] | 47.6 ± 3.7 | 49.8 ± 3.0 | 54.8 ± 5.2 | 59.4 ± 3.3 | 59.2 ± 2.8 | significantly higher |  |  | 
N[C@@H](CS[C@H]1c2c(O)cc(O)cc2O[C@H](c2ccc(O)c(O)c2)[C@@H]1O)C(=O)O [4β-(S-cysteinyl)epicatechin] | 47.6 ± 3.0 | 52.0 ± 2.3 | 61.8 ± 2.6 | 69.8 ± 3.2 | 70.2 ± 2.8 | significantly higher |  |  | 
Oc1cc(O)c2c(c1)O[C@H](c1ccc(O)c(O)c1)[C@H](O)C2 [(−)-epicatechin, reference compound] | 46.8 ± 1.9 | 47.0 ± 2.2 | 47.6 ± 3.2 | 47.4 ± 2.6 | 46.8 ± 1.3 |  | No significant differences | no significant protection | no significant storage stabilizing cryoprotective effect
